# According to US8921563B2, “1-[(4-hydroxypiperidin-4-yl)methyl]pyridin-2(1H)-one derivatives, preparation methods and uses thereof” (Institue of Pharmacology and Toxicology Academy of Military …, priority 2010, dated 2014):
# How the values were obtained:
# [1] = molecular target: T1, 5-HT transport protein (SERT) (Rattus norvegicus, UniProt P31652); assay: Screening: competitive binding test to SERT using [3H]-citalopram; conditions: [3H]-citalopram 1 nM, read-out: Inhibition percent (I %), competitive binding to 5-HT transport protein (SERT)
# T1 construct: Preparation of Membrane Proteins in Rat Hippocampi; from tissue; host or cells: Wistar rat hippocampus
# Experimental: The homogenate was centrifuged under 1000×g for 10 minutes and the supernatant was then centrifuged under 39000×g for 10 minutes. The precipitate was collected, and resuspended with 10 times volume of Tris-HCl buffer solution (pH 7.4) relative to the original weight, then centrifuged under 39000×g for 10 minutes. The precipitate was washed with the same buffer solution, centrifuged under 39000×g for 10 minutes and the precipitate was suspended with the above buffer solution. After sub-packaged (the whole operation procedures were performed under ice bath), the product was stored at −80° C. The protein concentration was measured by Lowrry method.
# 5-HT1A receptor = molecular target: T2, 5-HT1A receptor (Rattus norvegicus, UniProt P19327); assay: Competitive binding test of YL-0911 and positive drugs to 5-HT1A receptor (extracted from hippocampi); conditions: [3H]-8-OH-DPAT 0.25 nM
# T2 construct: the content of 5-HT1A receptor extracted from rat hippocampi was 5.5 mg/ml; from tissue; host or cells: Wistar rat hippocampus, membrane preparation
# T2 sequence (P19327 1-422): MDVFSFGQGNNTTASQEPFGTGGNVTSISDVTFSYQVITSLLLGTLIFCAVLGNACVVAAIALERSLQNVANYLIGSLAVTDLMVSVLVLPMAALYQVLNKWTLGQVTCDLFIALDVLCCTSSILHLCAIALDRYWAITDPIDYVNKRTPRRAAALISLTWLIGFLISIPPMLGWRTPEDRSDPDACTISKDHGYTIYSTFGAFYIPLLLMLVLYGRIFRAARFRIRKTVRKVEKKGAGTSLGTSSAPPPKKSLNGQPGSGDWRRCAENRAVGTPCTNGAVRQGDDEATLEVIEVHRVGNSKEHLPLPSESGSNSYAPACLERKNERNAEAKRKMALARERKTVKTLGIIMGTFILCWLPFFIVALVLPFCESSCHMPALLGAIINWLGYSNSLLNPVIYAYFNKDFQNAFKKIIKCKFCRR
# Experimental: 1) Test tubes were placed in 37° C. reactor.
# 3) To the test tubes, 20 μl of the drug to be tested (selecting a concentration ranging from 10^−3-10^−10M) was added.
# IC50 and Kd were used to calculate Ki value.
# 5-HT reuptake = molecular target: T3, 5-HT reuptake (Rattus norvegicus, UniProt P31652); assay: 5-HT reuptake inhibition in crudely produced rat synaptosomes ([3H]-5-HT); format: biochemical; conditions: [3H]-5-HT 20.3 nM, read-out: IC50 of 5-HT reuptake inhibition in rat brain
# T3 construct: from tissue; host or cells: rat brain (hippocampi and cortex separated; results from cortex), crude synaptosomes
# Experimental: (1) Preparation of Synaptosome Protein.
# 1) Rats were rapidly decapitated and the brains were removed, and hippocampi and cortex were separated on ice.
# 2) Same brain tissues of 3 rats were combined, to which 10 times volume of ice-bath homogenate was added, and homogenized.
# 3) The homogenate was centrifuged at 4° C. under 1500 g for 10 minutes and the precipitate was decanted.
# 4) The supernatant was centrifuged at 4° C. under 12000 g for 15 minutes and the supernatant was decanted, and the precipitate portion was a crudely produced synaptosome.
# 5) Washed with resuspension buffer twice and centrifuged at 4° C. under 13000 g for 10 minutes and resuspended again.
# 6) Protein concentration was measured by Lowrry method.
# 7) The synaptosome was preserved on ice, and the test was completed within 4-6 h.
# 1) To all tubes, the crudely produced synaptosome protein was added in an amount of 50 μg in sequence.
# 3) To the test tubes, the drug to be tested in various concentrations in range of 10^−3-10^−10M was added in sequence and reacted for 15 minutes. […]
# 7) The samples were then applied to 49-type glass fibre filters, vacuum suction filtered, washed 5 times with 10 ml ice-cooled Tris-HCl buffer. […] The radioactive intensity was measured by using LS6500 type liquid scintillation counter.
# The calculated inhibition percents were used to calculate IC50 value by using Orgin7.0/GraphPad Prism 4.0 software.
# NET = NET (Homo sapiens, UniProt P23975); assay: Preliminary test of NET binding effect of YL-0911; conditions: 10^-5 and 10^-7 mol/L; NET protein from HEK-293 cell line
# From the text: (4) Preliminary Test of NET Binding Effect of YL-0911 and Positive Control Drugs
# Two different drug concentrations, 10^−5 and 10^−7 mol/L, were used to determine the binding effect of YL-0911 on NET protein extracted from the HEK-293 cell lines of stably expression NET.
# mice [2] = assay: Forced swim test in mice; format: in vivo; conditions: acute, 1 h before test
# Experimental: 2.1.1 Forced Swim Test in Mice
# Forced swim test in mice is an acute behavioral despair model established by Porsolt, et al.
# (1) Experimental device: a glass cylinder (diameter 13 cm, height 24 cm, containing 10 cm of water maintained at 25).
# (2) Experimental method: Male Kunming mice weighing 20-25 g. The mice were gently put in the water 1 h after intragastrically drug administration, and then the duration of immobility in the last 4 min of total 6 min test was recorded.
# mice [3] = assay: Tail suspension test in mice; format: in vivo; conditions: acute, 1 h before test
# From the text: 2.1.2 Tail Suspension Test in Mice
# Tail suspension test in mice is an acute behavioral despair model established by Stem, et al. (1985).
# 1) Experimental device: an experimental frame with spacing boards which dividing the experimental frame into 2 experimental chambers (20×25×30 cm). A clamp is mounted on a through cross rod in the chamber for clamping mice tail so as to suspend the mice.
# 2) Experimental method: Male Kunming mice weighing 20-25 g. The mice were intragastrically administered with YL-0911 or vehicle (distilled water). After 1 h, wrap adhesive tape around the mouse's tail in position three quarters of the distance from the base of the tail and then suspend the animals by passing the suspension hook through the adhesive tape 5 cm above the table. The duration of immobility in the last 4 min of total 6 min test was recorded.
# mice [4] = assay: Hole board test in mice; format: in vivo; conditions: long-term (23 days); for Number of Head dips / Time of head dipping: 5 min
# Experimental: Hole board test, an animal model of anxiety established by Boissie, et al (1962), was performed in mice.
# 1) Experimental device: a transparent Perspex box (40×40×27 cm) which had four holes (3 cm in diameter, 1.8 cm in depth) in the floor. The distance of each hole center to its closest wall is 10 cm.
# 2) Experimental method: Male Kunming mice weighing 20-25 g. The mice were intragastrically administered with YL-0911 or vehicle (distilled water). After 23 days, the mice were placed at center of the hole board with their backs facing to the observer. A head dip was scored if the animal's head dipped into the hole at least up to eye level The latency to the first head-dip, the number of head-dips and the time spent in head-dipping were recorded for 5 min.
# SERT = SERT (Homo sapiens, UniProt P31645); assay: Competitive binding test of YL-0911 and positive drugs to SERT (hSERT from transfected cell lines)
# Chain of SERT (P31645 whole entry): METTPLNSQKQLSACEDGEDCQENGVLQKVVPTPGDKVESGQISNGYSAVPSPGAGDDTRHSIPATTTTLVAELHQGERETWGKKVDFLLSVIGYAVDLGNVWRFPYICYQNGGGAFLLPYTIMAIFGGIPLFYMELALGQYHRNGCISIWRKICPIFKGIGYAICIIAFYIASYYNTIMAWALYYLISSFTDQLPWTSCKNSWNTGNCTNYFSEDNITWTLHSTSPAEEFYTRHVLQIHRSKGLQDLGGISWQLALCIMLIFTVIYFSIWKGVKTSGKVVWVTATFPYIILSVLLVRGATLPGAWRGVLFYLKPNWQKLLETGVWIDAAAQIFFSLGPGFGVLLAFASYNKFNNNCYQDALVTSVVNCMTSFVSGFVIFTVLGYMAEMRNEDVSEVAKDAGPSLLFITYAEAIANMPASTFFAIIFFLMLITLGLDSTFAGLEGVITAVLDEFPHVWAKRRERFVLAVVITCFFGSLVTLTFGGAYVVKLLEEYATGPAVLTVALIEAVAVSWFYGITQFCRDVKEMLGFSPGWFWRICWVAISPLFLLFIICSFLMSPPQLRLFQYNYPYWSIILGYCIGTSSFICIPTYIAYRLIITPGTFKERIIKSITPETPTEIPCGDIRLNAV
# T1 sequence (P31652 whole entry): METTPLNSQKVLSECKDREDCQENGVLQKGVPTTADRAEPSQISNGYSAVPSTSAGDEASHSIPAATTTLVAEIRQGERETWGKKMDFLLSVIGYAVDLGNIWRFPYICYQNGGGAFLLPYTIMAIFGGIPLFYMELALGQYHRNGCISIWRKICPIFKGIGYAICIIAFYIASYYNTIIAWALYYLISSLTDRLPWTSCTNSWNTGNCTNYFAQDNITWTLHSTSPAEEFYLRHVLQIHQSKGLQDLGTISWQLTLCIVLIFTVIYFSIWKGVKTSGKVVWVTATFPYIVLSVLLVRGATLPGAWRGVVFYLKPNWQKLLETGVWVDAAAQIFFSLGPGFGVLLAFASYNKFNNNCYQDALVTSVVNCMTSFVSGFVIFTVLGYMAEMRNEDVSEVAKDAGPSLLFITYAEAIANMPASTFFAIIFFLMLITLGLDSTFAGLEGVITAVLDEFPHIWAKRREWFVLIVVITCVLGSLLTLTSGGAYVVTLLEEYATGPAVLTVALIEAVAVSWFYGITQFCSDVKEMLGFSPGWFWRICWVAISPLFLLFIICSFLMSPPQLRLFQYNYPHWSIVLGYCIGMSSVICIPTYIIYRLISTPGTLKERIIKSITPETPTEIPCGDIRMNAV
# Chain of NET (P23975 whole entry): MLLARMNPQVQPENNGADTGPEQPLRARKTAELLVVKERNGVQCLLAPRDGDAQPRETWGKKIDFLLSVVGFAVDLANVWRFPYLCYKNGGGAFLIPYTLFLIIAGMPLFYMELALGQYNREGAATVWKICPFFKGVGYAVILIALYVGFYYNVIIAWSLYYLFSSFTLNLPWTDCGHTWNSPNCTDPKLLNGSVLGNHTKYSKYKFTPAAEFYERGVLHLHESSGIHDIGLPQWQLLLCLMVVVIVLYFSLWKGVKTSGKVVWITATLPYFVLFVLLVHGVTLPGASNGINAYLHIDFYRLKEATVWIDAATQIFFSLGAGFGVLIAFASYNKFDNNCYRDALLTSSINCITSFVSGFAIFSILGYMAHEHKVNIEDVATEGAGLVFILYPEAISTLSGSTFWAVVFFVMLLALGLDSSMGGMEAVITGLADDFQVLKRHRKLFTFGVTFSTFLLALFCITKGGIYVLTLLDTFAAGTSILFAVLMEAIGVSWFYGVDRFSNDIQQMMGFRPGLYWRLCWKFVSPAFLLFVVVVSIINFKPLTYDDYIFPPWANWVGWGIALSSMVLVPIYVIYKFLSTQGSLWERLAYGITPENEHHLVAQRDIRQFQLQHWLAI
# T3 sequence (P31652 whole entry): as the sequence (P31652 whole entry) above
compound,measurement,setting,value
"O=c1ccccn1CC1(O)CCN(Cc2ccccc2)CC1 [Compound 1, 1-[(1-benzyl-4-hydroxypiperidin-4-yl)-methyl]-pyridin-2(1H)-one]",inhibition at 10 µM,[1]; compound 10^-5 mol/L,100%
same,inhibition at 0.1 µM,[1]; compound 10^-7 mol/L,84%
same,Ki,5-HT1A receptor,0.44 ± 0.32 nM
same,IC50,5-HT reuptake,8.51 ± 0.23 nM
same,affinity to NET (selectivity),NET,obviously lower than the affinity to SERT and 5-HT1A
same,"Immobility time (s), forced swim test",mice [2]; 0.625 mg/kg p.o.,126.1 ± 60.9 s
same,"Immobility time (s), forced swim test",mice [2]; 1.25 mg/kg p.o.,72.0 ± 46.5 s
same,"Immobility time (s), forced swim test",mice [2]; 5 mg/kg p.o.,149.6 ± 39.1 s
same,"Immobility time (s), tail suspension test",mice [3]; 0.625 mg/kg p.o.,105.4 ± 24.6 s
same,"Immobility time (s), tail suspension test",mice [3]; 1.25 mg/kg p.o.,93.8 ± 38.7 s
same,"Immobility time (s), tail suspension test",mice [3]; 5 mg/kg p.o.,98.8 ± 45.3 s
same,the latency to the first head-dip,mice [4]; 0.625 mg/kg p.o.,62.60 ± 16.75 s
same,Number of Head dips,mice [4]; 0.625 mg/kg p.o.,6.40 ± 0.97
same,Time of head dipping,mice [4]; 0.625 mg/kg p.o.,3.75 ± 0.91 s
same,the latency to the first head-dip,mice [4]; 1.25 mg/kg p.o.,33.00 ± 6.34 s
same,Number of Head dips,mice [4]; 1.25 mg/kg p.o.,10.60 ± 1.17
same,Time of head dipping,mice [4]; 1.25 mg/kg p.o.,6.86 ± 0.55 s
same,the latency to the first head-dip,mice [4]; 5 mg/kg p.o.,31.60 ± 6.88 s
same,Number of Head dips,mice [4]; 5 mg/kg p.o.,7.40 ± 1.00
same,Time of head dipping,mice [4]; 5 mg/kg p.o.,5.95 ± 0.93 s
same,melting point,,216 to 218 °C
same,Ki,SERT,5.38 ± 0.27 nM
